Experiment [1] deals with Angiotensin-converting enzyme 2 (Homo sapiens, UniProt Q9BYF1). As to the kind of experiment: Inhibition of SARS-COV2 S-RBD binding to human ACE2 expressed in HEK293T cells by NanoLuc luciferase assay.
The target in another experiment is Spike glycoprotein (Severe acute respiratory syndrome coronavirus 2, UniProt P0DTC2). As to the kind of experiment: Inhibition of SARS-COV2 spike protein mediated infection of human ACE2 expressing cells at 50 uM […].
Experiment [2] in a line: Inhibition of SARS-COV2 spike protein mediated infection of human ACE2 expressing cells at 50 uM […]. For orientation: In SPR one partner is held on a chip, and binding of the other changes the refractive index at the surface.

Sequence of Angiotensin-converting enzyme 2 (Q9BYF1 whole entry): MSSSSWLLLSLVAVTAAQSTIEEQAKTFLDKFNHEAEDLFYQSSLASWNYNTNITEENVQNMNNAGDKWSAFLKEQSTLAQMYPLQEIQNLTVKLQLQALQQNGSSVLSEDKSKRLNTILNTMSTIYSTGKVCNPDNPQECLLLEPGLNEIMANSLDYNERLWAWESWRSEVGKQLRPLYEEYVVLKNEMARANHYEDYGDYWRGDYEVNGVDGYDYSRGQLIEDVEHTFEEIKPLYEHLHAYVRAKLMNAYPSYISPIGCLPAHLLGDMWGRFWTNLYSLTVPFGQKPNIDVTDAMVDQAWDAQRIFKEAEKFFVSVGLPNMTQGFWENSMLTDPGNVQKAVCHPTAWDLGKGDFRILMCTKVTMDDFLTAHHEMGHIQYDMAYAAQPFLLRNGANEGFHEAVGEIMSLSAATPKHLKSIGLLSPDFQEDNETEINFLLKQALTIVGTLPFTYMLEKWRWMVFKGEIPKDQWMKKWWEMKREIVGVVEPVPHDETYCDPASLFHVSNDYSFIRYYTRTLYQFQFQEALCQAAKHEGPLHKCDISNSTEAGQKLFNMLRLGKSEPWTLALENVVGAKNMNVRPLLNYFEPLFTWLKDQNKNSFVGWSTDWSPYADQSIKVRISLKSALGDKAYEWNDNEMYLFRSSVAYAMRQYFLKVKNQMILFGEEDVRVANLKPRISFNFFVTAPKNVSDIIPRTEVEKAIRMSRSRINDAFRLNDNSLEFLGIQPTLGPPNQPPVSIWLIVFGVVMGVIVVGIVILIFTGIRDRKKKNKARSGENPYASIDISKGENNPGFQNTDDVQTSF

Turning to `COc1cc(C)nc2c(OC)cc(Cc3cnc(N)nc3N)cc12`, the IC50 (as a rule, the point on the concentration scale where inhibition reaches its midpoint) in experiment [1] stood at 700 nM. Turning to `COc1cc(Cc2cnc(N)nc2N)cc2c(N(C)C)cc(C)nc12`, the half-maximal inhibitory concentration (IC50) against Spike glycoprotein came to 600 nM. That is a sub-micromolar value. As for `O=c1cc(-c2ccc(O)c(O)c2)oc2cc(O)cc(O)c12` [2-(3,4-dihydroxyphenyl)-5,7-dihydroxy-4H-chromen-4-one], the concentration for half-maximal inhibition (IC50) in experiment [2] stood at 10600 nM. Still for that read-out and setting: the result for `O=C(OC[C@H]1O[C@@H](OC(=O)c2cc(O)c(O)c(O)c2)[C@H](OC(=O)c2cc(O)c(O)c(O)c2)[C@H](OC(=O)c2cc(O)c(O)c(O)c2)[C@@H]1O)c1cc(O)c(O)c(O)c1` [med.21724, Compound 2] reads 4500 nM.

These data come from BindingDB's records for PubMed 32539378 (Shandong University, 2020).
